Measurements taken from ChEMBL document CHEMBL4229379, “Synthesis and structure-activity relationship of novel bisindole amidines active against MDR Gram-positive and Gram-negative bacteria” (Eur J Med Chem, 2018).
Values after ≈ are worked out from the molar mass of the structure shown.

How the values were obtained:
[1] = test system: Enterococcus faecalis; assay: Antibacterial activity against vancomycin-resistant Enterococcus faecalis ATCC 51299 after 18 hrs by CLSI broth microdilution method; format: functional; conditions: ATCC 51299, 18 h
[2] = test system: Proteus vulgaris; assay: Antibacterial activity against Proteus vulgaris ATCC 29905 after 18 hrs by CLSI broth microdilution method; format: functional; conditions: ATCC 29905, 18 h
[3] = Cytotoxicity against HEK293T cells assessed as reduction in cell viability after 48 hrs by MTS assay; format: cell-based, HEK-293T; conditions: human
[4] = test system: Escherichia coli; assay: Antibacterial activity against extended-spectrum beta-lactamase deficient Escherichia coli 1515 after 18 hrs by CLSI broth microdilution method; format: functional; conditions: Escherichia coli, 1515, 18 h
[5] = test system: Staphylococcus aureus; assay: Antibacterial activity against methicillin-sensitive Staphylococcus aureus 15 after 18 hrs by CLSI broth microdilution method; format: functional; conditions: Staphylococcus aureus, 15, 18 h
[6] = test system: Staphylococcus aureus; assay: Antibacterial activity against methicillin-sensitive Staphylococcus aureus 12-28 after 18 hrs by CLSI broth microdilution method; format: functional; conditions: 12-28, 18 h
[7] = test system: Escherichia coli; assay: Antibacterial activity against extended-spectrum beta-lactamase deficient Escherichia coli ATCC 25922 after 18 hrs by CLSI broth microdilution method; format: functional; conditions: ATCC 25922, 18 h
[8] = test system: Providencia rettgeri; assay: Antibacterial activity against Providencia rettgeri ATCC 31052 after 18 hrs by CLSI broth microdilution method; format: functional; conditions: ATCC 31052, 18 h
[9] = test system: Enterobacter cloacae; assay: Antibacterial activity against Enterobacter cloacae ATCC 43560 after 18 hrs by CLSI broth microdilution method; format: functional; conditions: ATCC 43560, 18 h
[10] = test system: Escherichia coli; assay: Antibacterial activity against extended-spectrum beta-lactamase deficient Escherichia coli 12-14 after 18 hrs by CLSI broth microdilution method; format: functional; conditions: 12-14, 18 h
[11] = test system: Klebsiella pneumoniae; assay: Antibacterial activity against extended-spectrum beta-lactamase deficient Klebsiella pneumoniae 7 after 18 hrs by CLSI broth microdilution method; format: functional; conditions: Klebsiella pneumoniae, 7, 18 h
[12] = test system: Enterococcus faecium; assay: Antibacterial activity against vancomycin-resistant Enterococcus faecium ATCC 700221 after 18 hrs by CLSI broth microdilution method; format: functional; conditions: ATCC 700221, 18 h
[13] = test system: Pseudomonas aeruginosa; assay: Antibacterial activity against Pseudomonas aeruginosa 12-16 after 18 hrs by CLSI broth microdilution method; format: functional; conditions: 12-16, 18 h
[14] = test system: Citrobacter freundii; assay: Antibacterial activity against Citrobacter freundii ATCC 43864 after 18 hrs by CLSI broth microdilution method; format: functional; conditions: ATCC 43864, 18 h
[15] = test system: Staphylococcus aureus; assay: Antibacterial activity against methicillin-resistant Staphylococcus aureus ATCC 33591 after 18 hrs by CLSI broth microdilution method; format: functional; conditions: ATCC 33591, 18 h
[16] = test system: Pseudomonas aeruginosa; assay: Antibacterial activity against Pseudomonas aeruginosa PAO1 after 18 hrs by CLSI broth microdilution method; format: functional; conditions: PAO1, 18 h
[17] = test system: Klebsiella pneumoniae; assay: Antibacterial activity against extended-spectrum beta-lactamase harboring Klebsiella pneumoniae ATCC 700603 after 18 hrs by CLSI broth microdilution method; format: functional; conditions: Klebsiella pneumoniae, 700603, 18 h
[18] = test system: Klebsiella pneumoniae; assay: Antibacterial activity against new delhi metallo-beta-lactamase-1 harboring Klebsiella pneumoniae ATCC BAA-2146 after 18 hrs by CLSI broth microdilution method; format: functional; conditions: ATCC BAA-2146, 18 h
[19] = test system: Staphylococcus epidermidis; assay: Antibacterial activity against methicillin-resistant Staphylococcus epidermidis 12-8 after 18 hrs by CLSI broth microdilution method; format: functional; conditions: 12-8, 18 h
[20] = test system: Pseudomonas aeruginosa; assay: Antibacterial activity against Pseudomonas aeruginosa ATCC 27853 after 18 hrs by CLSI broth microdilution method; format: functional; conditions: ATCC 27853, 18 h
[21] = test system: Stenotrophomonas maltophilia; assay: Antibacterial activity against Stenotrophomonas maltophilia ATCC 13636 after 18 hrs by CLSI broth microdilution method; format: functional; conditions: ATCC 13636, 18 h
[22] = test system: Enterococcus faecium; assay: Antibacterial activity against vancomycin-resistant Enterococcus faecium 12-1 after 18 hrs by CLSI broth microdilution method; format: functional; conditions: 12-1, 18 h
[23] = test system: Staphylococcus aureus; assay: Antibacterial activity against methicillin-resistant Staphylococcus aureus 12-33 after 18 hrs by CLSI broth microdilution method; format: functional; conditions: 12-33, 18 h
[24] = test system: Escherichia coli; assay: Antibacterial activity against extended-spectrum beta-lactamase harboring Escherichia coli 12-15 after 18 hrs by CLSI broth microdilution method; format: functional; conditions: 12-15, 18 h
[25] = test system: Enterococcus faecalis; assay: Antibacterial activity against vancomycin-resistant Enterococcus faecalis 09-9 after 18 hrs by CLSI broth microdilution method; format: functional; conditions: 09-9, 18 h
[26] = test system: Enterococcus faecalis; assay: Antibacterial activity against vancomycin-sensitive Enterococcus faecalis 12-5 after 18 hrs by CLSI broth microdilution method; format: functional; conditions: 12-5, 18 h
[27] = test system: Serratia marcescens; assay: Antibacterial activity against Serratia marcescens ATCC 21074 after 18 hrs by CLSI broth microdilution method; format: functional; conditions: ATCC 21074, 18 h
[28] = test system: Staphylococcus aureus; assay: Antibacterial activity against methicillin-sensitive Staphylococcus aureus ATCC 29213 after 18 hrs by CLSI broth microdilution method; format: functional; conditions: ATCC 29213, 18 h
[29] = test system: Enterococcus faecalis; assay: Antibacterial activity against vancomycin-sensitive Enterococcus faecalis ATCC 29212 after 18 hrs by CLSI broth microdilution method; format: functional; conditions: ATCC 29212, 18 h
[30] = test system: Staphylococcus epidermidis; assay: Antibacterial activity against methicillin-sensitive Staphylococcus epidermidis 12-6 after 18 hrs by CLSI broth microdilution method; format: functional; conditions: 12-6, 18 h
[31] = test system: Proteus mirabilis; assay: Antibacterial activity against Proteus mirabilis 12-6 after 18 hrs by CLSI broth microdilution method; format: functional; conditions: 12-6, 18 h
[32] = test system: Enterococcus faecium; assay: Antibacterial activity against vancomycin-sensitive Enterococcus faecium 12-3 after 18 hrs by CLSI broth microdilution method; format: functional; conditions: 12-3, 18 h
[33] = test system: Klebsiella pneumoniae; assay: Antibacterial activity against extended-spectrum beta-lactamase deficient Klebsiella pneumoniae 12-4 after 18 hrs by CLSI broth microdilution method; format: functional; conditions: 12-4, 18 h
[34] = test system: Klebsiella aerogenes; assay: Antibacterial activity against Enterobacter aerogenes ATCC 13048 after 18 hrs by CLSI broth microdilution method; format: functional; conditions: ATCC 13048, 18 h
[35] = test system: Staphylococcus epidermidis; assay: Antibacterial activity against methicillin-sensitive Staphylococcus epidermidis ATCC 12228 after 18 hrs by CLSI broth microdilution method; format: functional; conditions: ATCC 12228, 18 h
[36] = test system: Klebsiella pneumoniae; assay: Antibacterial activity against extended-spectrum beta-lactamase harboring Klebsiella pneumoniae 12-8 after 18 hrs by CLSI broth microdilution method; format: functional; conditions: 12-8, 18 h
[37] = test system: Acinetobacter calcoaceticus; assay: Antibacterial activity against Acinetobacter calcoaceticus ATCC 19606 after 18 hrs by CLSI broth microdilution method; format: functional; conditions: ATCC 19606, 18 h

| SMILES | MIC [1] [µg/mL] | MIC [2] [µg/mL] | CC50 at 48 h [3] [µg/mL] | MIC [4] [µg/mL] | MIC [5] [µg/mL] | MIC [6] [µg/mL] | MIC [7] [µg/mL] | MIC [8] [µg/mL] | MIC [9] [µg/mL] | MIC [10] [µg/mL] | MIC [11] [µg/mL] | MIC [12] [µg/mL] | MIC [13] [µg/mL] | MIC [14] [µg/mL] | MIC [15] [µg/mL] | MIC [16] [µg/mL] | MIC [17] [µg/mL] | MIC [18] [µg/mL] | MIC [19] [µg/mL] | MIC [20] [µg/mL] | further results |
| --- | --- | --- | --- | --- | --- | --- | --- | --- | --- | --- | --- | --- | --- | --- | --- | --- | --- | --- | --- | --- | --- |
| CN(C)CCNC(=N)c1ccc2cc(-c3ccc(-c4cc5ccc(C(=N)NCCN(C)C)cc5[nH]4)cc3)[nH]c2c1 | 4 (≈ 7.48 µM) | 16 (≈ 29.9 µM) | 31.2 (≈ 58.4 µM) | 8 (≈ 15 µM) | 2 (≈ 3.74 µM) | 2 (≈ 3.74 µM) | 8 (≈ 15 µM) | 16 (≈ 29.9 µM) | 8 (≈ 15 µM) | 8 (≈ 15 µM) | 8 (≈ 15 µM) | 4 (≈ 7.48 µM) | 64 (≈ 120 µM) | 8 (≈ 15 µM) | 2 (≈ 3.74 µM) | 64 (≈ 120 µM) | 16 (≈ 29.9 µM) | 8 (≈ 15 µM) | 1 (≈ 1.87 µM) | 16 (≈ 29.9 µM) | MIC [21]: 16 µg/mL (≈ 29.9 µM); MIC [22]: 4 µg/mL (≈ 7.48 µM); MIC [23]: 2 µg/mL (≈ 3.74 µM); MIC [24]: 16 µg/mL (≈ 29.9 µM); MIC [25]: 4 µg/mL (≈ 7.48 µM); MIC [26]: 4 µg/mL (≈ 7.48 µM); MIC [27]: 16 µg/mL (≈ 29.9 µM); MIC [28]: 2 µg/mL (≈ 3.74 µM); MIC [29]: 4 µg/mL (≈ 7.48 µM); MIC [30]: 0.5 µg/mL (≈ 0.935 µM); MIC [31]: 128 µg/mL (≈ 239 µM); MIC [32]: 8 µg/mL (≈ 15 µM); MIC [33]: 8 µg/mL (≈ 15 µM); MIC [34]: 8 µg/mL (≈ 15 µM); MIC [35]: 0.5 µg/mL (≈ 0.935 µM); MIC [36]: 8 µg/mL (≈ 15 µM); MIC [37]: > 128 µg/mL |
| CNC(=N)c1ccc2cc(-c3cncc(-c4cc5ccc(C(=N)NC)cc5[nH]4)c3)[nH]c2c1 | > 64 | > 64 | > 100 | > 64 | > 64 | > 64 | > 64 | > 64 | > 64 | > 64 | > 64 | > 64 | > 64 | > 64 | > 64 | > 64 | > 64 | > 64 | 8 (≈ 19 µM) | > 64 | MIC [21]: > 64 µg/mL; MIC [22]: > 64 µg/mL; MIC [23]: > 64 µg/mL; MIC [24]: > 64 µg/mL; MIC [25]: > 64 µg/mL; MIC [26]: > 64 µg/mL; MIC [27]: > 64 µg/mL; MIC [28]: > 64 µg/mL; MIC [29]: > 64 µg/mL; MIC [30]: 8 µg/mL (≈ 19 µM); MIC [31]: > 64 µg/mL; MIC [32]: > 64 µg/mL; MIC [33]: > 64 µg/mL; MIC [34]: > 64 µg/mL; MIC [35]: 4 µg/mL (≈ 9.49 µM); MIC [36]: > 64 µg/mL; MIC [37]: > 64 µg/mL |
| CCN(C)C(=N)c1ccc2cc(-c3ccc(-c4cc5ccc(C(=N)N(C)CC)cc5[nH]4)cc3)[nH]c2c1 | 2 (≈ 4.2 µM) | 4 (≈ 8.39 µM) | 17 (≈ 35.8 µM) | 2 (≈ 4.2 µM) | 0.5 (≈ 1.05 µM) | 0.5 (≈ 1.05 µM) | 1 (≈ 2.1 µM) | 4 (≈ 8.39 µM) | 2 (≈ 4.2 µM) | 2 (≈ 4.2 µM) | 4 (≈ 8.39 µM) | 1 (≈ 2.1 µM) | 128 (≈ 269 µM) | 2 (≈ 4.2 µM) | 0.5 (≈ 1.05 µM) | 128 (≈ 269 µM) | 8 (≈ 16.8 µM) | 4 (≈ 8.39 µM) | 0.5 (≈ 1.05 µM) | 8 (≈ 16.8 µM) | MIC [21]: 8 µg/mL (≈ 16.8 µM); MIC [22]: 0.5 µg/mL (≈ 1.05 µM); MIC [23]: 1 µg/mL (≈ 2.1 µM); MIC [24]: 2 µg/mL (≈ 4.2 µM); MIC [25]: 2 µg/mL (≈ 4.2 µM); MIC [26]: 2 µg/mL (≈ 4.2 µM); MIC [27]: 16 µg/mL (≈ 33.6 µM); MIC [28]: 0.5 µg/mL (≈ 1.05 µM); MIC [29]: 1 µg/mL (≈ 2.1 µM); MIC [30]: 0.25 µg/mL (≈ 0.525 µM); MIC [31]: 8 µg/mL (≈ 16.8 µM); MIC [32]: 1 µg/mL (≈ 2.1 µM); MIC [33]: 4 µg/mL (≈ 8.39 µM); MIC [34]: 2 µg/mL (≈ 4.2 µM); MIC [35]: 0.25 µg/mL (≈ 0.525 µM); MIC [36]: 4 µg/mL (≈ 8.39 µM); MIC [37]: 4 µg/mL (≈ 8.39 µM) |
